Blank lines part the entries; values can stand above or below the compound they belong to.
Key:
[1] = molecular target: T1, DtolTA (PLP-dependent transaminase of fold type IV) (Desulfobacula toluolica, UniProt K0NPP0); assay: crystal structure (9J0V […] Å; also 9J0U […] Å); tyrosine fluorescence quenching titration of apoenzyme; type: binding; design: gene dat; full length, 286 a.a; (His)6-tagged for Kd, tag removed for crystals
T1 sequence (K0NPP0 1-286): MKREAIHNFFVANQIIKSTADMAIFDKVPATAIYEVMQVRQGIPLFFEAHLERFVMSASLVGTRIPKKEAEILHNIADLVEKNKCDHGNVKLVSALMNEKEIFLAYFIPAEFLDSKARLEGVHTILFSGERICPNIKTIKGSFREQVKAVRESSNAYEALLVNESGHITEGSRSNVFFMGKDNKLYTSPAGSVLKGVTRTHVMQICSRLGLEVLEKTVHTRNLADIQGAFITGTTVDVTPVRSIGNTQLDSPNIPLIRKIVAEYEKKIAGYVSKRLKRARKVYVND

[2] = molecular target: T2, DtolTA (PLP-dependent transaminase of fold type IV) (Desulfobacula toluolica, UniProt K0NPP0, R144I); assay: tyrosine fluorescence quenching titration of apoenzyme; type: binding
T2 construct: gene dat; (His)6-tagged DtolTA variant
Source text: tyrosine fluorescence quenching titration of apoenzyme on DtolTA (PLP-dependent transaminase of fold type IV) | apparent dissociation constant Kd(PLP) for the R144I holoenzyme were similar to those of WT

[3] = molecular target: T1, DtolTA (PLP-dependent transaminase of fold type IV); assay: half-reaction (deamination) kinetics, absorbance at […] nm; kmax/KD^app; type: biochemical; design: gene dat; (His)6-tagged DtolTA
[4] = molecular target: T3, DtolTA (PLP-dependent transaminase of fold type IV) (Desulfobacula toluolica, UniProt K0NPP0, K91A); assay: half-reaction kinetics of variant apoenzyme in the presence of PLP; kmax/KD^app at pH […]; type: biochemical
T3 construct: gene dat; (His)6-tagged DtolTA variant

[5] = molecular target: T1, DtolTA (PLP-dependent transaminase of fold type IV); assay: half-reaction (deamination) kinetics, absorbance at […] nm; kmax/KD^app at pH […]; type: biochemical; design: gene dat; (His)6-tagged DtolTA
[6] = molecular target: T2, DtolTA (PLP-dependent transaminase of fold type IV); assay: half-reaction (deamination) kinetics, absorbance at […] nm; kmax/KD^app; type: biochemical
[7] = molecular target: TA from Haliscomenobacter hydrossis (Haliscomenobacter hydrossis); assay: SEC; gel filtration of the purified enzyme; column and buffer not given

Compound: Cc1ncc(COP(=O)(O)O)c(C=O)c1O [pyridoxal-5′-phosphate]
Kd [1]: 30 ± 4 µM | Kd [2]: 43 ± 2 µM

half-reaction (deamination) kinetics, absorbance at 411 nm; kmax/KD^app [3]: 0.015 ± 0.005 M⁻¹ s⁻¹
Compound: C[C@@H](N)c1ccccc1 [(R)-1-phenylethylamine]

Compound: C[C@@H](N)C(=O)O [D-alanine]
half-reaction kinetics of variant apoenzyme in the presence of PLP; kmax/KD^app [4]: 2.4 ± 0.7 M⁻¹ s⁻¹ | half-reaction (deamination) kinetics, absorbance at 411 nm; kmax/KD^app at pH 8. [5]: 37 ± 1 M^−1s^−1 | half-reaction (deamination) kinetics, absorbance at 411 nm; kmax/KD^app [6]: 29 ± 1 M⁻¹ s⁻¹

stoichiometry N [7]: 2
Compound: TA from Haliscomenobacter hydrossis (enzyme)

Compound: N[C@H](CCC(=O)O)C(=O)O [D-glutamate]
half-reaction (deamination) kinetics, absorbance at 411 nm; kmax/KD^app [3]: 0.020 ± 0.001 M⁻¹ s⁻¹

Source: article PMC11673721 (Biomolecules, 2024)
